Common to all, as to assay type: in vivo
One experiment deals with F-cells. Briefly: Percentage of F-cells using antibodies against fetal hemoglobin by FACS, blood of treated SCD mice. To be noted: Townes S/S mice; for effect on proportion of circulating erythroid cells expressing fetal hemoglobin (conclusion): 185 mg/kg i.p. daily D0 to D15. Here is the method: (§1) The aim of the present study was to evaluate, the effects of i.p. daily administration of compounds 001, 010 and 011 at 185 mg/kg as modulator of red blood cell sickling and fetal hemoglobin expression in erythroid cells and its potential role in therapy for sickle cell disease on mouse model of SCD.
(§2) Townes S/S mice on a 129/B6 mixed genetic background.
(§3) The powders of compounds 001, 010 and 011 (185 mg/kg) were dissolved in vehicle (the solution is used at room temperature for maximum 1 day). A fresh sample for each administration was prepared every day except the week-end (the solution is prepared on Saturday and is used on Saturday and Sunday).
(§4) In Townes S/S mice, mouse alpha- and beta-globin gene loci are deleted and replaced by human alpha- and beta-globin genes. When carrying two copies of the beta S allele, mice develop a human sickle disease phenotype with sickle-shaped red blood cells are seen in blood smears.
(§5) Group description: • Group 1: Vehicle (i.p.) • Group 2: compound 001 (185 mg/kg) • Group 3 compound 010 (185 mg/kg) • Group 4: compound 011 (185 mg/kg)
(§6) Mice were i.p treated with compounds 001, 010 and 011 during all the experiment (D0 to D15) once per day. Last injection occurred 24 hours before sacrifice.
(§7) Retro-orbital blood collection was performed at the inclusion D0 and at D5, D10 and D15 through facial vein bleeding.
(§8) Ex-vivo blood collected were assessed for percentage of F-cells using antibodies against fetal hemoglobin by FACS and reticulocyte counts using reticount by FACS. Red blood cells sickling was assessed under hypoxia.
For orientation: In flow cytometry, cells or beads pass a laser one at a time.

The subject of the next experiment is SS RBCs. Description: RBC sickling under hypoxia ex vivo, RBCs from treated SCD mice. Conditions: Townes S/S mice; for effect on red blood cell sickling under hypoxia (conclusion): 185 mg/kg i.p. daily D0 to D15; for percentage of sickling cells at D0 / percentage of sickling cells after 15 days treatment: 185 mg/kg/d i.p., RBCs ex vivo 30 minutes hypoxia (1% Oz). Here is the method: as §1, §2, §3, §4, §5, §6, §7, §8
FIGS. 3, 4 and 5 show the ability of compounds 001 (FIG. 3), 010 (FIG. 4) and 011 (FIG. 5) to prevent sickling of SS RBCs at a 1% Oz. SS RBCs from treated mice and collected at D0, D5, D10 and D15 were submitted to hypoxia for 30 minutes in a hypoxic chamber (1% Oz). Percentage of sickling RBCs was then assessed for each time point with compounds 001, 010 and 011.

For a further experiment, the system named is reticulocytes. Briefly: Reticulocyte counts using Reticount by FACS, blood of treated SCD mice. To be noted: Townes S/S mice, 185 mg/kg/d i.p. Here is the method:
The aim of the present study was to evaluate, the effects of i.p. daily administration of compounds 001, 010 and 011 at 185 mg/kg as modulator of red blood cell sickling and fetal hemoglobin expression in erythroid cells and its potential role in therapy for sickle cell disease on mouse model of SCD. Townes S/S mice on a 129/B6 mixed genetic background. The powders of compounds 001, 010 and 011 (185 mg/kg) were dissolved in vehicle (the solution is used at room temperature for maximum 1 day). A fresh sample for each administration was prepared every day except the week-end (the solution is prepared on Saturday and is used on Saturday and Sunday). In Townes S/S mice, mouse alpha- and beta-globin gene loci are deleted and replaced by human alpha- and beta-globin genes. When carrying two copies of the beta S allele, mice develop a human sickle disease phenotype with sickle-shaped red blood cells are seen in blood smears. Group description: • Group 1: Vehicle (i.p.) • Group 2: compound 001 (185 mg/kg) • Group 3 compound 010 (185 mg/kg) • Group 4: compound 011 (185 mg/kg) Mice were i.p treated with compounds 001, 010 and 011 during all the experiment (D0 to D15) once per day. […] Ex-vivo blood collected were assessed for percentage of F-cells using antibodies against fetal hemoglobin by FACS and reticulocyte counts using reticount by FACS. Red blood cells sickling was assessed under hypoxia.

The test system of experiment [1] is Townes S/S mice. Briefly: Hematocrit percentage in blood of SCD-model mice. Conditions: for effect on hematocrit percentage in blood: i.p. once per day D0 to D15 (compound 001 185 mg/kg, L-Gln 180 mg/kg), under normoxia and hypoxia, vs vehicle or L-Gln. How it is done: The purpose of this study is to evaluate the effects of i.p. daily administration of compound 001 at 185 mg/kg and/or L-Glutamine (L-Gln) at 180 mg/Kg on hematological parameters and RBC sickling. L-Gln has received approval by the FDA for the treatment of sickle cell disease (SCD) patients in the United States as it has been shown that L-Gln administration reduces the severity and frequency of VOCs. Townes S/S mice on a 129/B6 mixed genetic background aged 8-12 weeks. The powder of compound 001 (185 mg/kg) was dissolved in vehicle (the solution is used at room temperature for maximum 1 day). The powder of L-Glutamine (180 mg/kg) was dissolved in vehicle (the solution is used at room temperature for maximum 1 day). In Townes S/S mice, mouse alpha- and beta-globin gene loci are deleted and replaced by human genes coding for the alpha- and beta-globin. When carrying two copies of the beta S allele, mice develop a human sickle disease phenotype with sickle-shaped red blood cells are seen in blood smears. Group description: • Group 1: Vehicle PBS (i.p.) • Group 2: Compound 001 (185 mg/kg) • Group 3 L-Gln (180 mg/kg) • Group 4: Compound 001 (185 mg/kg)+L-Gln (180 mg/kg) Mice were i.p treated with Compound 001, L-Gln or the combination of compound 001+L-Gln during all the experiment (D0 to D15) once per day. Last injection occurred 24 hours before sacrifice. Retro-orbital blood collection was performed at the inclusion and at D15. Ex-vivo blood collected were assessed for blood parameters and RBC sickling ex vivo under normoxia (20% Oz) and hypoxia (1% Oz for 0.5 hour). […] III. CONCLUSION

In experiment [2] the test system is Townes S/S mice. Description: Hemoglobin concentration in blood of SCD-model mice. To be noted: for effect on hemoglobin concentration in blood: i.p. once per day D0 to D15 (compound 001 185 mg/kg, L-Gln 180 mg/kg), under normoxia and hypoxia, vs vehicle or L-Gln. How it is done: (§9) The purpose of this study is to evaluate the effects of i.p. daily administration of compound 001 at 185 mg/kg and/or L-Glutamine (L-Gln) at 180 mg/Kg on hematological parameters and RBC sickling. L-Gln has received approval by the FDA for the treatment of sickle cell disease (SCD) patients in the United States as it has been shown that L-Gln administration reduces the severity and frequency of VOCs. Townes S/S mice on a 129/B6 mixed genetic background aged 8-12 weeks. The powder of compound 001 (185 mg/kg) was dissolved in vehicle (the solution is used at room temperature for maximum 1 day). The powder of L-Glutamine (180 mg/kg) was dissolved in vehicle (the solution is used at room temperature for maximum 1 day). In Townes S/S mice, mouse alpha- and beta-globin gene loci are deleted and replaced by human genes coding for the alpha- and beta-globin. When carrying two copies of the beta S allele, mice develop a human sickle disease phenotype with sickle-shaped red blood cells are seen in blood smears. Group description: • Group 1: Vehicle PBS (i.p.) • Group 2: Compound 001 (185 mg/kg) • Group 3 L-Gln (180 mg/kg) • Group 4: Compound 001 (185 mg/kg)+L-Gln (180 mg/kg) Mice were i.p treated with Compound 001, L-Gln or the combination of compound 001+L-Gln during all the experiment (D0 to D15) once per day. Last injection occurred 24 hours before sacrifice. Retro-orbital blood collection was performed at the inclusion and at D15. Ex-vivo blood collected were assessed for blood parameters and RBC sickling ex vivo under normoxia (20% Oz) and hypoxia (1% Oz for 0.5 hour).

For experiment [3], the system named is Townes S/S mice. Briefly: Concentration of red blood cells in blood of SCD-model mice. To be noted: for effect on concentration of RBC in blood: i.p. once per day D0 to D15 (compound 001 185 mg/kg, L-Gln 180 mg/kg), under normoxia and hypoxia, vs vehicle or L-Gln. Here is the method:
as §9

The mark [4] stands for this setting: 185 mg/kg/d i.p., hypoxia (1% Oz for 0.5 hour) vs normoxia.

Regarding α,α-diNMN [Compound 011], the “effect on proportion of circulating erythroid cells expressing fetal hemoglobin (conclusion)” value (shortened to “effect on proportion”) with F-cells is recorded as “increase the proportion of circulating erythroid cells expressing fetal hemoglobin”. In the experiment with SS RBCs, the “effect on red blood cell sickling under hypoxia (conclusion)” value (from here on “effect on red blood cell sickling”) is listed as “reduce red blood cell sickling under hypoxia”, the “percentage of sickling cells at D0” value came to 31% and the “percentage of sickling cells after 15 days treatment” value (“percentage … after 15 days treatment” below) is 20%.
As to `NC(=O)c1ccc[n+]([C@@H]2O[C@H](COP(=O)([O-])O)[C@@H](O)[C@H]2O)c1` (stereo in doubt) [Compound 001, NMN], in the experiment on reticulocytes (over the 15 days treatment), the “percentage of reticulocytes after treatment” value is given as 30%. Besides, the “percentage of reticulocytes, starting value” with reticulocytes (value before the 15 days treatment) came to 70%. Moreover, the “effect on proportion” value with F-cells is given as “increase the proportion of circulating erythroid cells expressing fetal hemoglobin”. Besides, in the experiment with F-cells (185 mg/kg/d i.p., over the 15 days treatment), the “mean F-cells after treatment” value was 8%. Further, in the experiment with F-cells (185 mg/kg/d i.p., value before the 15 days treatment), the “mean F-cells, starting value” was “less than 5%”. Also, in the experiment on Townes S/S mice [1] (setting [4]), the “effect of hypoxia on hematocrit percentage in blood of treated mice” value is on record as “did not result in a decrease”. For the same compound, the “effect on hematocrit percentage in blood” value in the experiment with Townes S/S mice [1] is “significant increase”. Besides, in the experiment on SS RBCs, the “effect on red blood cell sickling” value is reported as “reduce red blood cell sickling under hypoxia”, the “percentage of sickling cells at D0” value amounted to 40% and the “percentage … after 15 days treatment” value is listed as “less than 10%”. Besides, the “effect of hypoxia on hemoglobin in blood of treated mice” value in the experiment on Townes S/S mice [2] (setting [4]) is “did not result in a decrease”. Besides, the “effect on hemoglobin concentration in blood” value in the experiment on Townes S/S mice [2] is “significant increase”. Besides, the “effect of hypoxia on RBC in blood of treated mice” value in the experiment on Townes S/S mice [3] (setting [4]) was “did not result in a decrease”. In addition, the “effect on concentration of RBC in blood” value in the experiment with Townes S/S mice [3] was “significant increase”.
Take α,β-diNMN [Compound 010]: in the experiment on F-cells, the “effect on proportion” value is recorded as “increase the proportion of circulating erythroid cells expressing fetal hemoglobin”. In the experiment with SS RBCs, the “effect on red blood cell sickling” value was “reduce red blood cell sickling under hypoxia”, the “percentage of sickling cells at D0” value stood at 32% and the “percentage … after 15 days treatment” value was “less than 15%”.
For the compound `NC(=O)CC[C@H](N)C(=O)O` [L-Gln, L-Glutamine, reference compound], the “effect on hematocrit percentage in blood” value with Townes S/S mice [1] is listed as “did not affect”. For the same compound, the “effect on hemoglobin concentration in blood” value in the experiment with Townes S/S mice [2] is “did not affect”. The “effect on concentration of RBC in blood” value with Townes S/S mice [3] is given as “did not affect”.

Source of the values: patent publication US12403153B2, “Nicotinamide mononucleotide derivatives and use thereof in the treatment and prevention of a red blood cell disorder” (Nuvamid SA, priority 2020, dated 2025).
